Test results published in US9115106B2, “Use of 5-hydroxy-2-hydroxymethyl-γ-pyrone (HMP) as a leishmanicidal agent” (UNIVERSIDADE FEDERAL DO PARA, priority 2008, dated 2015).
Values joined by “and” are separate entries in the source; they are usually repeats but may differ in a detail not shown here. Equal values may be shown once.

What was measured:
Leishmania promastigotes = test: Leishmanicidal activity on promastigotes; assay type: cell-based, L. amazonensis; settings: 50 μg/mL
melasma = settings: HMP added to trichloroacetic acid and glycolic acid mixture; cited from earlier work
[1] = tested on: L. amazonensis amastigotes in infected macrophages; test: Leishmanicidal activity on amastigotes during in vitro infection of macrophages; assay type: cell-based
Procedure: The peritoneal murine macrophage cells were cultured at 37° C. and 5% CO2 in Dulbecco's modified Eagle's medium (DMEM) supplemented with 10% heat-inactivated sterile filtered fetal bovine serum (FCS), 10 mM Hepes, pH 7.3, 100 U/mL penicillin and 100 µg/mL streptomycin (all from Gibco BRL/Life Technologies, Middlesex, UK). Cells were used after 24 hours of culture. L. amazonensis promastigotes were obtained from the Evandro Chagas Institute in NNN medium and maintained at 26° C. in RPMI1640 medium. Host cells were cultivated and infected or not with L. amazonensis, before treating or not with HMP at the same concentrations described previously.

[2] = tested on: host cells infected with L. amazonensis; test: Superoxide production, histochemical assay with Nitro Blue Tetrazolium (NBT); assay type: cell-based, murine; settings: 50 μg/mL, compared with control cells
Procedure: The peritoneal murine macrophage cells were cultured at 37° C. and 5% CO2 in Dulbecco's modified Eagle's medium (DMEM) supplemented with 10% heat-inactivated sterile filtered fetal bovine serum (FCS), 10 mM Hepes, pH 7.3, 100 U/mL penicillin and 100 µg/mL streptomycin (all from Gibco BRL/Life Technologies, Middlesex, UK). Cells were used after 24 hours of culture. Host cells were cultivated and infected or not with L. amazonensis, before treating or not with HMP at the same concentrations described previously.

rats = settings: cited from earlier work
[3] = ideal doses of consumption; no risk in doses of 0.03-0.06 mg/kg/day; cited from earlier work
tyrosinases 1 and 2 = settings: Schistosoma mansoni eggs; cited from earlier work
[4] = tested on: bacteria (bacilos, Salmonella); settings: cited from earlier work
[5] = tested on: bacteria from various genera; settings: Aerobacter, Bacillus, Escherichia, Staphylococcus and other genera; cited from earlier work
[6] = tested on: peritoneal murine macrophage cells; test: Cellular viability by MTT and Neutral Red assays; assay type: cell-based; settings: 10, 20 and 50 μg/mL HMP in DMEM
Procedure: The peritoneal murine macrophage cells were cultured at 37° C. and 5% CO2 in Dulbecco's modified Eagle's medium (DMEM) supplemented with 10% heat-inactivated sterile filtered fetal bovine serum (FCS), 10 mM Hepes, pH 7.3, 100 U/mL penicillin and 100 µg/mL streptomycin (all from Gibco BRL/Life Technologies, Middlesex, UK). Cells were used after 24 hours of culture. […] Viability analyses performed by through Thiazolyl Blue (MTT) e Neutral Red (NR) assays.

[7] = water, ethanol, or acetone; cited from earlier work
[8] = tested on: peritoneal murine macrophage cells; test: Morphological analysis of host cells by light, fluorescence and electron microscopy; assay type: cell-based; settings: treated cells compared with control cells
Procedure: The peritoneal murine macrophage cells were cultured at 37° C. and 5% CO2 in Dulbecco's modified Eagle's medium (DMEM) supplemented with 10% heat-inactivated sterile filtered fetal bovine serum (FCS), 10 mM Hepes, pH 7.3, 100 U/mL penicillin and 100 µg/mL streptomycin (all from Gibco BRL/Life Technologies, Middlesex, UK). Cells were used after 24 hours of culture. Firstly, morphological alterations were observed by light and fluorescence microscopy, as well as transmission and scanning electron microscopy in host cells, treated or not with 10, 20 and 50 μg/mL of HMP diluted in DMEM. Viability analyses performed by through Thiazolyl Blue (MTT) e Neutral Red (NR) assays.

leukemia P388 = leukemia P388 in mice; cited from earlier work
thyroid = settings: continued administration of high doses, rats; cited from earlier work
[9] = estimated; cited from earlier work

O=c1cc(CO)occ1O [HMP, 5-hydroxy-2-hydroxymethyl-γ-pyrone]
inhibition at 50 µg/mL (Leishmania promastigotes): 68% | effect on melasma treatment (melasma): improved treatment of melasma | minimal concentration with leishmanicidal activity ([1]; activating host cell microbicidal response): 50 µg/mL | reduction in amastigotes during in vitro infection ([1]; cells treated with 50 μg/mL): 79% | effect on intracellular amastigote (ultrastructural observations) ([1]; parasites inside the macrophages): causing morphological alterations and death | superoxide production (NBT) [2]: greater superoxide production | teratogenic effect (rats): did not cause any teratogenic effect | toxic or genotoxic effects [3]: does not contain toxic or genotoxic effects | inhibition of tyrosinase activity (tyrosinases 1 and 2): inhibit the activity of tyrosinases 1 and 2 | mutagenicity [4]: evidence in the literature regarding the mutagenicity of HMP in bacteria | antibacterial activity [5]: inhibition of bacteria from various genera | cytotoxic effect by MTT and NR assays [6]: not due to unspecific cytotoxic effect | solubility [7]: freely soluble | host cell activation (morphology) [8]: increase on actin filament polymerization and spreading | antitumoural activity (leukemia P388): positive effects of antitumoural activity | thyroid tumour induction (thyroid): induction of thyroid adenomas | pKa [9]: 7.90 and 8.03
